Measured values from ChEMBL document CHEMBL5247581, “Design, synthesis and biological evaluation of new quinazolinone-benzopyran-indole hybrid compounds promoting osteogenesis through BMP2 upregulation” (Eur J Med Chem, 2022).
Calls of active or inactive are those of the source. The calls are words filed in the database; no cut-off is given here.

Key:
Calvarial osteoblast [1] = assay: Induction of osteogenesis in mouse Osteoblast cells assessed as ALP activity at 0.001 to 100 uM measured for 24 to 48 hrs; assay type: functional; conditions: dose 0.001-100 µM, time 24-48 hrs
Calvarial osteoblast [2] = assay: Induction of osteogenesis in mouse Osteoblast cells assessed as ALP activity at 10 nM measured for 48 hrs; assay type: functional, cell-based
Calvarial osteoblast [3] = assay: Cytotoxicity against mouse Osteoblast cells assessed as reduction in cell viability at 100 uM measured for 24 to 48 hrs by MTT assay; assay type: toxicity, cell-based; conditions: time 24-48 hrs
Calvarial osteoblast [4] = assay: Induction of osteogenesis in mouse Osteoblast cells assessed as ALP activity at 0.001 to 100 uM measured for 48 hrs; assay type: functional, cell-based; conditions: dose 0.001-100 µM
[5] = Induction of osteoblast mineralization in mouse Bone marrow cells assessed as increase in mineralized nodule formation at 100 pM replaced with media every 48 hrs for 21 days by Alizarin Red staining-based microscopic analysis; assay type: functional, Bone marrow cell; conditions: time 21 day
Calvarial osteoblast [6] = assay: Induction of osteoblast differentiation in mouse calvarial osteoblasts cells assessed as ALP activity at 100 to 10000 pM measured for 7 days; assay type: functional, cell-based; conditions: dose 100-10000 pM, time 7.0 day
Calvarial osteoblast [7] = assay: Induction of osteogenesis in mouse Osteoblast cells assessed as ALP activity at 0.001 to 100 uM measured for 24 hrs; assay type: functional, cell-based; conditions: dose 0.001-100 µM
Calvarial osteoblast [8] = assay: Cytotoxicity against mouse Osteoblast cells assessed as reduction in cell viability at 0.000001 to 1 uM measured for 24 to 48 hrs by MTT assay; assay type: toxicity, cell-based; conditions: dose lower 1e-06 µM, time lower 24 hrs, dose upper 1 µM, time upper 48 hrs
[9] = Induction of osteoblast mineralization in mouse Bone marrow cells assessed as increase in mineralized nodule formation at 10 nM replaced with media every 48 hrs for 21 days by Alizarin Red staining-based microscopic analysis; assay type: functional, Bone marrow cell; conditions: time 21 day
Calvarial osteoblast [10] = assay: Induction of osteogenesis in mouse Osteoblast cells assessed as ALP activity at 1 to 1000 pM measured for 24 to 48 hrs; assay type: functional, cell-based; conditions: dose 1-1000 pM, time 24-48 hrs
Calvarial osteoblast [11] = assay: Induction of osteogenesis in mouse Osteoblast cells assessed as ALP activity at 100 to 1000000 pM measured for 24 to 48 hrs; assay type: functional, cell-based; conditions: dose 100-1e+06 pM, time 24-48 hrs
Calvarial osteoblast [12] = assay: Induction of osteogenesis in mouse Osteoblast cells assessed as ALP activity at 10 nM measured for 24 to 48 hrs; assay type: functional, cell-based; conditions: time 24-48 hrs
Calvarial osteoblast [13] = assay: Induction of osteogenesis in mouse Osteoblast cells assessed as fold increase in RUNX2 gene expression at 100 to 10000 pM by qRT-PCR analysis; assay type: functional; conditions: dose 100-10000 pM

SMILES | Activity (Calvarial osteoblast [1]) | other results
Cc1[nH]c2ccccc2c1C1C(C#N)=C(N)Oc2c(C(C)C)cc(-c3nc4ccccc4c(=O)n3C)cc21 (configuration not stated) | 1% | 
CCn1c(-c2cc3c(c(C(C)(C)C)c2)OC(N)=C(C#N)C3c2c(C)[nH]c3ccccc23)nc2ccccc2c1=O (configuration not stated) | 9% | 
COc1ccc2[nH]c(C)c(C3C(C#N)=C(N)Oc4c3cc(-c3nc5ccccc5c(=O)n3C)cc4C(C)(C)C)c2c1 (configuration not stated) | 19% | Activity (Calvarial osteoblast [2]): Active; Activity (Calvarial osteoblast [3]): Toxic; Activity (Calvarial osteoblast [4]): Active; Activity [5]: 10%; Activity (Calvarial osteoblast [6]): Active; Activity (Calvarial osteoblast [7]): inactive; Activity (Calvarial osteoblast [8]): Non-Toxic; Activity [9]: 20%
Cc1[nH]c2ccc(Cl)cc2c1C1C(C#N)=C(N)Oc2c1cc(-c1nc3ccccc3c(=O)n1C)cc2C(C)(C)C (configuration not stated) | 7% | 
CCc1cc(-c2nc3ccccc3c(=O)n2C)cc2c1OC(N)=C(C#N)C2c1c(C)[nH]c2ccccc12 (configuration not stated) | 7% | 
N#CC1=Cc2ccccc2OC1N (configuration not stated) | 18% | 
CCCc1cc(-c2nc3ccccc3c(=O)n2C)cc2c1OC(N)=C(C#N)C2c1c(C)[nH]c2ccc(Cl)cc12 (configuration not stated) | 12% | 
Cc1[nH]c2ccccc2c1C1C(C#N)=C(N)Oc2c1cc(-c1nc3ccccc3c(=O)n1C)cc2C(C)(C)C (configuration not stated) | inactive | 
CCn1c(C)nc2ccccc2c1=O | 1% | Activity (Calvarial osteoblast [10]): inactive; Activity (Calvarial osteoblast [11]): inactive; Activity (Calvarial osteoblast [12]): inactive
CCc1cc(-c2nc3ccccc3c(=O)[nH]2)cc2c1OC(N)=C(C#N)C2c1c(C)[nH]c2ccccc12 (configuration not stated) | inactive | 
Cc1[nH]c2ccccc2c1C1C(C#N)=C(N)Oc2ccccc21 (configuration not stated) | inactive | Activity (Calvarial osteoblast [10]): inactive; Activity (Calvarial osteoblast [12]): inactive
CCn1c(-c2cc(C(C)C)c3c(c2)C(c2c(C)[nH]c4ccccc24)C(C#N)=C(N)O3)nc2ccccc2c1=O (configuration not stated) | 6% | 
CCCc1cc(-c2nc3ccccc3c(=O)n2CC)cc2c1OC(N)=C(C#N)C2c1c(C)[nH]c2ccccc12 (configuration not stated) | 12% | 
COc1ccc2[nH]c(C)c(C3C(C#N)=C(N)Oc4c(C(C)C)cc(-c5nc6ccccc6c(=O)n5C)cc43)c2c1 (configuration not stated) | inactive | 
CCn1c(-c2cc(C)c3c(c2)CC(C#N)=C(N)O3)nc2ccccc2c1=O | inactive | Activity (Calvarial osteoblast [10]): inactive; Activity (Calvarial osteoblast [12]): inactive
CCCc1cc(-c2nc3ccccc3c(=O)n2C)cc2c1OC(N)=C(C#N)C2c1c(C)[nH]c2ccc(OC)cc12 (configuration not stated) | 11% | fold change (FC) (Calvarial osteoblast [13]): 3
